Results on 13 compounds are retold here after ChEMBL document CHEMBL4007475, “Green synthesis of novel spiro-indenoquinoxaline derivatives and their cholinesterases inhibition activity” (Bioorg Med Chem, 2017).

The species named for assay [1] is Homo sapiens. The experiment in a line: Selectivity index, ratio of IC50 for butyrylcholinesterase (unknown origin) to IC50 for acetylcholinesterase (unknown origin).
The target of another assay is Acetylcholinesterase (Homo sapiens, UniProt P22303). The assay can be described thus: Inhibition of acetylcholinesterase (unknown origin) using acetylthiocholine as substrate preincubated for 20 mins followed by substrate addition by Ellmans method.
The subject of a further assay is HepG2. The experiment in a line: Cytotoxicity against human HepG2 cells after 48 hrs by MTT assay. To be noted: HepG2, 48 h. In kind it is cell-based. (In general: Formazan colour is commonly taken as a measure of viable cells.)
The target in a further assay is Cholinesterase (Homo sapiens, UniProt P06276). The experiment in a line: Inhibition of butyrylcholinesterase (unknown origin) using acetylthiocholine as substrate preincubated for 20 mins followed by substrate addition by Ellmans method.
For assay [2], the species on record is Homo sapiens. The assay can be described thus: Selectivity index, ratio of IC50 for acetylcholinesterase (unknown origin) to IC50 for butyrylcholinesterase (unknown origin).
Assay [3] is filed under the species Homo sapiens. The experiment in a line: Selectivity for acetylcholinesterase (unknown origin) over butyrylcholinesterase (unknown origin).

Sequence of Cholinesterase (P06276 whole entry): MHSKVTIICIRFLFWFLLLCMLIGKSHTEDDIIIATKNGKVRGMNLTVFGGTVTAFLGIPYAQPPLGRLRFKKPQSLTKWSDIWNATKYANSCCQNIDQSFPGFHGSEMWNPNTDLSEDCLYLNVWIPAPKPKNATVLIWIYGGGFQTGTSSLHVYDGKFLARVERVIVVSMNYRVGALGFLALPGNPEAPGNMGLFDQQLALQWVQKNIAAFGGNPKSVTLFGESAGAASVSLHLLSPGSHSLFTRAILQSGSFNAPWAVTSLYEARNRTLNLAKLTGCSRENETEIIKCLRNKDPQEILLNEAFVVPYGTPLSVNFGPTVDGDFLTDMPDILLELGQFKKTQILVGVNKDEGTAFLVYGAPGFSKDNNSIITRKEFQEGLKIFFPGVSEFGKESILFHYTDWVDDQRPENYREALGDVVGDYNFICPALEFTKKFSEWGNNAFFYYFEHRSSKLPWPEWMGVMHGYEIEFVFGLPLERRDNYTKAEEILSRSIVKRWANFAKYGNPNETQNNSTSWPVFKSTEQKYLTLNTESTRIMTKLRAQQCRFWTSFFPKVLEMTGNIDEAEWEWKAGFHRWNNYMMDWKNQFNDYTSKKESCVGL
Sequence of Acetylcholinesterase (P22303 whole entry): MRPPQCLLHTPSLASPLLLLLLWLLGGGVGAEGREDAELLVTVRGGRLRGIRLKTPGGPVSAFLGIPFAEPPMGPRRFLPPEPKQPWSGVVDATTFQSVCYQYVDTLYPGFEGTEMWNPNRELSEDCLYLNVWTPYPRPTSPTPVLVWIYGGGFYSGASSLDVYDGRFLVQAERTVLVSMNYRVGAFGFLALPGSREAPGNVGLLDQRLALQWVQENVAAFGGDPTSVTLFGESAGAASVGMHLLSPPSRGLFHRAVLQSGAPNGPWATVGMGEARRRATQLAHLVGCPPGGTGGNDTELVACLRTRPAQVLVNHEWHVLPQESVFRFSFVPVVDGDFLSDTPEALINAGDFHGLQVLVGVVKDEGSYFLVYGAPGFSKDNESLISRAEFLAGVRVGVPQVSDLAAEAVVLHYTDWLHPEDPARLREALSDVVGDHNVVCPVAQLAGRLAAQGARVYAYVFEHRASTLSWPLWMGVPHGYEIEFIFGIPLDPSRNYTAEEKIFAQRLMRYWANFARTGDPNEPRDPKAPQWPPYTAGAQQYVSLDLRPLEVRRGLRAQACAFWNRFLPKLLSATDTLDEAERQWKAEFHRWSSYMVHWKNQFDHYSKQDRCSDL

The IC50 is the concentration at which inhibition is half-maximal. A low value points to higher potency. Take `N#CC1=C(N)N2CCCNC2=C([N+](=O)[O-])C12c1ccccc1-c1nc3ccccc3nc12` (stereo unspecified): the Ratio IC50 in the assay filed under Homo sapiens [1] worked out at 2.43; in the assay listed under Homo sapiens [2], 0.411. In addition, the figures for the IC50 against Acetylcholinesterase, in the assay with HepG2 and against Cholinesterase were 4.2 µM, 174 µM and 10.2 µM, respectively.

Consider `N#CC1=C(N)N2CCCNC2=C([N+](=O)[O-])C12c1ccccc1-c1nc3ccc([N+](=O)[O-])cc3nc12` (stereo unspecified), for which the Ratio IC50 in the assay listed under Homo sapiens [1] was 2.49; in the assay listed under Homo sapiens [2] it was 0.402. In addition, the IC50 at Acetylcholinesterase was 3.9 µM; in the assay on HepG2, 161 µM; on Cholinesterase, 9.7 µM.

Take `Cc1cc2nc3c(nc2cc1C)C1(C(C#N)=C(N)N(Cc2ccccc2)C(NCc2ccccc2)=C1[N+](=O)[O-])c1ccccc1-3` (stereo unspecified): the Ratio IC50 was found to be 1.53 in the assay filed under Homo sapiens [1] and 0.651 in the assay listed under Homo sapiens [2]. The IC50 came to 5.8 µM on Acetylcholinesterase, 174 µM with HepG2 and 8.9 µM against Cholinesterase.

For `N#CC1=C(N)N(Cc2ccccc2)C(NCc2ccccc2)=C([N+](=O)[O-])C12c1ccccc1-c1nc3ccccc3nc12` (stereo unspecified), the values for the Ratio IC50 in the assay listed under Homo sapiens [1] and in the assay filed under Homo sapiens [2] were 1.62 and 0.616, respectively. For the same compound, the 50% inhibitory concentration (IC50) was 5.3 µM against Acetylcholinesterase, 190 µM in the assay on HepG2 and 8.6 µM at Cholinesterase.

`N#CC1=C(N)N(Cc2ccccc2)C(NCc2ccccc2)=C([N+](=O)[O-])C12c1ccccc1-c1nc3ccc([N+](=O)[O-])cc3nc12` (stereo unspecified): the Ratio IC50 in the assay listed under Homo sapiens [1] was determined as 2.07; in the assay filed under Homo sapiens [2] it was 0.483. The IC50 against Acetylcholinesterase is 4.4 µM; in the assay with HepG2, 167 µM; against Cholinesterase, 9.1 µM.

`N#CC1=C(N)N2CCNC2=C([N+](=O)[O-])C12c1ccccc1-c1nc3ccc([N+](=O)[O-])cc3nc12` (stereo unspecified): the Ratio IC50 stood at 1.48 in the assay filed under Homo sapiens [1] and 0.677 in the assay filed under Homo sapiens [2]. Besides, the figures for the IC50 against Acetylcholinesterase, in the assay with HepG2 and at Cholinesterase were 6.5 µM, 174 µM and 9.6 µM, respectively.

On to `Cc1cc2nc3c(nc2cc1C)C1(C(C#N)=C(N)N2CCCNC2=C1[N+](=O)[O-])c1ccccc1-3` (stereo unspecified), for which the Ratio IC50 in the assay filed under Homo sapiens [1] is 1.67; in the assay listed under Homo sapiens [2], 0.6. Also, the figures for the IC50 against Acetylcholinesterase, in the assay on HepG2 and against Cholinesterase were 5.7 µM, 171 µM and 9.5 µM, respectively.

Turning to `COc1cc2c(cc1OC)C(=O)C(CC1CCN(Cc3ccccc3)CC1)C2` (stereo unspecified), the Selectivity ratio in the assay listed under Homo sapiens [3] turned out to be 10000.

On to `Cc1cc2nc3c(nc2cc1C)C1(C(C#N)=C(N)N2CCNC2=C1[N+](=O)[O-])c1ccccc1-3` (stereo unspecified), for which the Ratio IC50 in the assay filed under Homo sapiens [1] was 1.11; in the assay listed under Homo sapiens [2], 0.904. Moreover, the figures for the IC50 on Acetylcholinesterase, in the assay with HepG2 and at Cholinesterase were 6.6 µM, 176 µM and 7.3 µM, respectively.

Turning to `Cc1cc2nc3c(nc2cc1C)C1(C(C#N)=C(N)N2CC(C)(C)CNC2=C1[N+](=O)[O-])c1ccccc1-3` (stereo unspecified), the Ratio IC50 in the assay listed under Homo sapiens [1] was 2.2; in the assay listed under Homo sapiens [2], 0.454. In addition, the IC50 is 4 µM at Acetylcholinesterase, 180 µM in the assay on HepG2 and 8.8 µM against Cholinesterase.

In the case of `CC1(C)CNC2=C([N+](=O)[O-])C3(C(C#N)=C(N)N2C1)c1ccccc1-c1nc2ccc([N+](=O)[O-])cc2nc13` (stereo unspecified), the results for the Ratio IC50 in the assay listed under Homo sapiens [1] and in the assay listed under Homo sapiens [2] were 2.81 and 0.356, respectively. Also, the IC50 against Acetylcholinesterase came to 3.6 µM; with HepG2 it was 169 µM; against Cholinesterase, 10.1 µM.

As for `N#CC1=C(N)N2CCNC2=C([N+](=O)[O-])C12c1ccccc1-c1nc3ccccc3nc12` (stereo unspecified), the Ratio IC50 was determined as 1.31 in the assay filed under Homo sapiens [1] and 0.761 in the assay listed under Homo sapiens [2]. Also, the IC50 on Acetylcholinesterase was found to be 6.4 µM; in the assay on HepG2, 194 µM; against Cholinesterase, 8.4 µM.

Turning to `CC1(C)CNC2=C([N+](=O)[O-])C3(C(C#N)=C(N)N2C1)c1ccccc1-c1nc2ccccc2nc13` (stereo unspecified), the results for the Ratio IC50 in the assay filed under Homo sapiens [1] and in the assay filed under Homo sapiens [2] were 2.28 and 0.438, respectively. Moreover, the IC50 against Acetylcholinesterase was 4.3 µM; with HepG2 it was 184 µM; against Cholinesterase, 9.8 µM.
